Laboratory results: patent US7314956B2, “Multifunctional carrier for the delivery of a pharmacological agent or genetic material into a cell” (Vaxim, Inc., priority 2001, dated 2008)
Read-outs that look alike come from different tables or passages of the source.

Columns and labels:
[1] = tested on: rabbit anti peptide T antiserum; conditions: compared with the other fractions of the same adduct, FIG. 14
Description: HPLC fractions of succinic acid-(Glu)n conjugated to peptide T were analyzed by ELISA (i.e., enzyme linked immunosorbent assay). HPLC fractions of conjugated peptide T were diluted (1:10) in coating buffer [1.59 g sodium carbonate (Na2CO3), 2.93 g sodium bicarbonate (NaHCO3) Dissolve in 900 ml H2O, adjust pH to 9.6 with HCl and make up to 1 L]. Control net peptide T was dissolved in coating buffer with a concentration of 5 μg/ml. 100 μl of each of two peptide T preparations was added to each well of a 96-well microtiter plate (Nunc). The plate was covered with a plate sealer and incubated at 4° C. over night. Following 3 washes with PBS-Tween [phosphate buffer saline: 8.0 g sodium chloride (NaCl), 0.2 g monobasic potassium phosphate (KH2PO4), 1.15 g dibasic sodium phosphate (Na2HPO4), 0.2 g potassium chloride (KCl), Dissolve in 900 ml H2O, adjust pH to 7.4 with NaOH or HCl and make up to 1 L, PBS+0.5 ml Tween 20 per liter]. 100 μl of diluted rabbit anti peptide T antiserum (1:250, in assay diluent, 0.1% BSA and 0.1% sodium azide (NaN3) in PBS) was added to each well. The plate was sealed and incubated for 1 hour at room temperature. Following 5 washes, each well was added with 100 μl of diluted goat anti rabbit IgG alkaline phosphatase conjugate (KPL, 1:1000 dilution in assay diluent). The plate was sealed and incubated for 30 min. […] Optical density (OD) was then read at 405 nm.

Balb/c mice = conditions: i.p. 0.5 mg per immunization, day 0, 8 and 21, Freund's adjuvant, antiserum 1:100, FIG. 15
Description: Balb/c mice were immunized intraperitoneally with succinic acid-(glu)n-Peptide T at 0.5 mg per immunization and per animal. The antigen complex was administered with complete Freund's adjuvant (first injection) and with incomplete Freund's adjuvant for booster injections. Mice were immunized 3 times at day 0, day 8 and day 21. Mice were bled via tail vein and 15 μl of blood collected by a capillary tube was transferred into 135 μl PBS in a 12×75 tissue culture tube. Diluted mouse sera were collected after centrifugation for 10 min.
A polystyrene 96-well plate (Nunc) was coated with free peptide T at 10 μg/ml in coating (pH 9.6) overnight at 4° C. The plate was washed 3 times with wash buffer. Afterwards, 100 μl of diluted (1:100 in assay diluent) mouse antiserum from each mouse was then added to each well (each serum sample was assayed in duplicate) and incubated for 2 hours at room temperature. The plates were then washed 5 times with wash buffer. Goat anti-mouse IgG conjugated to alkaline phosphate (KPL) was diluted 1:1000 in PBS with 1% bovine serum albumin, added to the wells, and incubated for 30 min at room temperature followed by six washes with wash buffer. Substrate solution (p-Nitrophenyl phosphate, 2 mg/ml in substrate buffer) was then added. Absorbance was then measured using a microplate reader at 405 nm.

[2] = in vitro; cited from earlier work
[3] = tested on: R5 and dual-tropic (R5/X4) HIV-1 strains; conditions: monocyte-derived macrophages (MDMs), microglia, primary CD4(+) T cells; cited from earlier work
CD4 receptor = CD4 receptor (Homo sapiens, UniProt P01730); conditions: in vitro; cited from earlier work

| Substance | immunoreactivity (optical density at 405 nm) ([1]; HPLC Fraction 2 (highest retention time)) | immune response (anti-peptide T antibodies, ELISA OD at 405 nm) (Balb/c mice) | immunoreactivity (optical density at 405 nm) ([1]; HPLC Fraction 3 (highest retention time)) | chemotactic activity [2] | replication of HIV-1 strains [3] | binding of isolated gp120 and HIV-1 to the CD4 receptor (CD4 receptor) |
| --- | --- | --- | --- | --- | --- | --- |
| Succinic Acid-(Glu)2-(Glu)4-(Peptide T)8 [Shell 2] | highest immunoreactivity | some mice show greater immune response | – | – | – | – |
| Succinic Acid-(Glu)2-(Glu)4-(Glu)8-(Peptide T)16 [Shell 3] | – | some mice show greater immune response | highest immunoreactivity | – | – | – |
| D-Ala-Ser-Thr-Thr-Thr-Asn-Tyr-Thr-NH2 [Peptide T] | – | – | – | chemotactic activity | inhibits replication | inhibition of the binding |
